Active and inactive are the calls of the source.
What was measured:
NCI-H1975 = assay: Antiproliferative activity against human NCI-H1975 cells incubated for 72 hrs by CCK8 assay; format: functional, cell-based; conditions: NCI-H1975, 72 h
NCI-H3255 = assay: Antiproliferative activity against human NCI-H3255 cells incubated for 72 hrs by CCK8 assay; format: functional, cell-based; conditions: NCI-H3255, 72 h
PC-9 [1] = assay: Antiproliferative activity against human PC-9 cells incubated for 72 hrs by CCK8 assay; format: functional, cell-based; conditions: PC-9, 72 h
HCC827 = assay: Antiproliferative activity against human HCC827 cells incubated for 72 hrs by CCK8 assay; format: functional, cell-based; conditions: HCC827, 72 h
A549 = assay: Antiproliferative activity against human A549 cells incubated for 72 hrs by CCK8 assay; format: functional, cell-based; conditions: A549, 72 h
PC-9 [2] = assay: Antiproliferative activity against Gefitinib-resistant human PC-9 cells incubated for 72 hrs by CCK8 assay; format: functional, cell-based
[3] = biological target: T1, Microtubule-associated protein 1 light chain 3 beta/Epidermal growth factor receptor (Homo sapiens, UniProt P00533+Q9GZQ8); assay: ATTEC activity at LC3B/EGFR in human HCC827 cells assessed as protein degradation by immunoblot analysis; format: cell-based
L02 = assay: Antiproliferative activity against human HL7702 cells incubated for 72 hrs by CCK8 assay; format: toxicity, cell-based; conditions: l02, 72 h
[4] = biological target: T1, Microtubule-associated protein 1 light chain 3 beta/Epidermal growth factor receptor; assay: ATTEC activity at LC3B/EGFR in human HCC827 cells assessed as protein degradation at 3.3 uM by immunoblot analysis relative to control; format: cell-based
[5] = biological target: T1, Microtubule-associated protein 1 light chain 3 beta/Epidermal growth factor receptor; assay: ATTEC activity at LC3B/EGFR in human HCC827 cells assessed as protein degradation at 0.11 uM by immunoblot analysis relative to control; format: cell-based
PC-9 [6] = assay: In vivo ATTEC activity at LC3B/EGFR in human PC-9 cells implanted in NOD-SCID mouse assessed as protein degradation at 20 mg/kg, ip measured after 24 hrs by Western blot analysis; format: functional, organism-based
[7] = biological target: T1, Microtubule-associated protein 1 light chain 3 beta/Epidermal growth factor receptor; assay: ATTEC activity at LC3B/EGFR in human HCC827 cells assessed as protein degradation at 0.33 uM by immunoblot analysis relative to control; format: cell-based
[8] = biological target: T1, Microtubule-associated protein 1 light chain 3 beta/Epidermal growth factor receptor; assay: ATTEC activity at LC3B/EGFR in human HCC827 cells assessed as increase in density of lysosomes incubated for 4 hrs by LysoTracker Red staining based analysis; format: cell-based
[9] = biological target: T1, Microtubule-associated protein 1 light chain 3 beta/Epidermal growth factor receptor; assay: Binding affinity to biotinylated LC3B/EGFR in human HCC827 cells BLI assay; format: cell-based
[10] = biological target: T1, Microtubule-associated protein 1 light chain 3 beta/Epidermal growth factor receptor; assay: Binding affinity to biotinylated LC3B/EGFR in human HCC827 cells assessed as dissociation constant BLI assay; format: cell-based

SMILES: COc1cc2ncnc(Nc3ccc(F)c(Cl)c3)c2cc1OCCOCCOCCOCCNC(=O)COc1c(Br)cc(/C=C2\C(=O)Nc3ccc(Br)cc32)cc1Br
- IC50 (NCI-H1975): > 10 µM
- IC50 (NCI-H3255): 2.54 µM
- IC50 (PC-9 [1]): 5.12 µM
- IC50 (HCC827): 3.84 µM
- IC50 (A549): > 10 µM
- Activity (PC-9 [2]): Active
- DC50 [3]: 2.77 µM
- Activity (L02): Non-Toxic

SMILES: COc1cc2ncnc(Nc3ccc(F)c(Cl)c3)c2cc1OCCCCNC(=O)COc1c(Br)cc(/C=C2\C(=O)Nc3ccc(I)cc32)cc1Br
- IC50 (NCI-H1975): > 10 µM
- Emax [4]: 5.8%
- IC50 (NCI-H3255): 6.04 µM
- IC50 (PC-9 [1]): > 10 µM
- IC50 (HCC827): 0.21 µM
- IC50 (A549): > 10 µM
- DC50 [3]: > 10 µM
- Activity (L02): Non-Toxic

SMILES: COc1cc2ncnc(Nc3ccc(F)c(Cl)c3)c2cc1OCCCCCCCCNC(=O)COc1c(Br)cc(/C=C2\C(=O)Nc3ccc(I)cc32)cc1Br
- IC50 (NCI-H1975): > 10 µM
- Emax [5]: 9.1%
- IC50 (NCI-H3255): 6.5 µM
- IC50 (PC-9 [1]): > 10 µM
- IC50 (HCC827): 2.19 µM
- IC50 (A549): > 10 µM
- DC50 [3]: > 10 µM
- Activity (L02): Non-Toxic

SMILES: COc1cc2ncnc(Nc3ccc(F)c(Cl)c3)c2cc1OCCOCCNC(=O)COc1c(Br)cc(/C=C2\C(=O)Nc3ccc(C)cc32)cc1Br
- IC50 (NCI-H1975): > 10 µM
- IC50 (NCI-H3255): 2.46 µM
- IC50 (PC-9 [1]): 3.53 µM
- IC50 (HCC827): 1.72 µM
- IC50 (A549): > 10 µM
- Activity (PC-9 [2]): Active
- DC50 [3]: > 10 µM
- Activity (L02): Non-Toxic

SMILES: COc1cc2ncnc(Nc3ccc(F)c(Cl)c3)c2cc1OCCOCCOCCNC(=O)COc1c(Br)cc(/C=C2\C(=O)Nc3ccc(Cl)cc32)cc1Br
- IC50 (NCI-H1975): > 10 µM
- IC50 (NCI-H3255): 2 µM
- IC50 (PC-9 [1]): 3.81 µM
- IC50 (HCC827): 6.03 µM
- IC50 (A549): > 10 µM
- Activity (PC-9 [2]): Active
- DC50 [3]: 8.49 µM
- Activity (L02): Non-Toxic

SMILES: COc1cc2ncnc(Nc3ccc(F)c(Cl)c3)c2cc1OCCOCCOCCNC(=O)COc1c(Br)cc(/C=C2\C(=O)Nc3ccc(C)cc32)cc1Br
- IC50 (NCI-H1975): > 10 µM
- IC50 (NCI-H3255): 1.83 µM
- IC50 (PC-9 [1]): 1.36 µM
- IC50 (HCC827): 0.862 µM
- IC50 (A549): > 10 µM
- Activity (PC-9 [2]): Active
- DC50 [3]: > 10 µM
- Activity (L02): Non-Toxic

SMILES: COc1cc2ncnc(Nc3ccc(F)c(Cl)c3)c2cc1OCCOCCNC(=O)COc1c(Br)cc(/C=C2\C(=O)Nc3ccc(Br)cc32)cc1Br
- IC50 (NCI-H1975): > 10 µM
- IC50 (NCI-H3255): 5.18 µM
- IC50 (PC-9 [1]): > 10 µM
- IC50 (HCC827): > 10 µM
- IC50 (A549): > 10 µM
- Activity (PC-9 [2]): Active
- DC50 [3]: > 10 µM
- Activity (L02): Non-Toxic

SMILES: COc1cc2ncnc(Nc3ccc(F)c(Cl)c3)c2cc1OCCCCCCCCCCNC(=O)COc1c(Br)cc(/C=C2\C(=O)Nc3ccc(I)cc32)cc1Br
- IC50 (NCI-H1975): > 10 µM
- IC50 (NCI-H3255): 4.93 µM
- IC50 (PC-9 [1]): > 10 µM
- IC50 (HCC827): 0.976 µM
- IC50 (A549): > 10 µM
- DC50 [3]: > 10 µM
- Activity (L02): Non-Toxic

SMILES: COc1cc2ncnc(Nc3ccc(F)c(Cl)c3)c2cc1OCCOCCOCCNC(=O)COc1c(Br)cc(/C=C2\C(=O)Nc3ccc(I)cc32)cc1Br
- IC50 (NCI-H1975): > 10 µM
- IC50 (NCI-H3255): 4.79 µM
- IC50 (PC-9 [1]): 11.1 µM
- IC50 (HCC827): 2.78 µM
- IC50 (A549): > 10 µM
- DC50 [3]: 3.62 µM
- Activity (L02): Non-Toxic

SMILES: COc1cc2ncnc(Nc3ccc(F)c(Cl)c3)c2cc1OCCOCCOCCOCCNC(=O)C(C)Oc1c(Br)cc(/C=C2\C(=O)Nc3ccc(I)cc32)cc1Br (stereo not given)
- IC50 (NCI-H1975): > 10 µM
- IC50 (NCI-H3255): 3.41 µM
- IC50 (PC-9 [1]): 7.04 µM
- IC50 (HCC827): 0.923 µM
- IC50 (A549): > 10 µM
- Activity (PC-9 [2]): Active
- DC50 [3]: 6.42 µM
- Activity (L02): Non-Toxic

SMILES: COc1cc2ncnc(Nc3ccc(F)c(Cl)c3)c2cc1OCCOCCOCCNC(=O)COc1c(Br)cc(/C=C2\C(=O)Nc3ccccc32)cc1Br
- IC50 (NCI-H1975): 3.18 µM
- IC50 (NCI-H3255): 0.908 µM
- IC50 (PC-9 [1]): 1.43 µM
- IC50 (HCC827): 1.15 µM
- IC50 (A549): > 10 µM
- Activity (PC-9 [2]): Active
- DC50 [3]: > 10 µM
- Activity (L02): Non-Toxic

SMILES: COc1cc2ncnc(Nc3ccc(F)c(Cl)c3)c2cc1OCCOCCOCCOCCNC(=O)COc1c(Br)cc(/C=C2\C(=O)Nc3ccc(C)cc32)cc1Br
- IC50 (NCI-H1975): > 10 µM
- IC50 (NCI-H3255): 1.13 µM
- IC50 (PC-9 [1]): 3.78 µM
- IC50 (HCC827): 0.937 µM
- IC50 (A549): > 10 µM
- Activity (PC-9 [2]): Active
- DC50 [3]: > 10 µM
- Activity (L02): Non-Toxic

SMILES: COc1cc2ncnc(Nc3ccc(F)c(Cl)c3)c2cc1OCCOCCOCCOCCNC(=O)COc1c(Br)cc(/C=C2\C(=O)Nc3ccccc32)cc1Br
- IC50 (NCI-H1975): > 10 µM
- Emax [4]: 26%
- IC50 (NCI-H3255): 1.43 µM
- IC50 (PC-9 [1]): 1.09 µM
- IC50 (HCC827): 1.72 µM
- IC50 (A549): > 10 µM
- Activity (PC-9 [2]): Active
- DC50 [3]: > 10 µM
- Activity (L02): Non-Toxic

SMILES: COc1cc2ncnc(Nc3ccc(F)c(Cl)c3)c2cc1OCCOCCOCCNC(=O)COc1c(Br)cc(/C=C2\C(=O)Nc3ccc(Br)cc32)cc1Br
- IC50 (NCI-H1975): > 10 µM
- IC50 (NCI-H3255): 2.84 µM
- IC50 (PC-9 [1]): 3.12 µM
- IC50 (HCC827): 1.06 µM
- IC50 (A549): > 10 µM
- Activity (PC-9 [2]): Active
- DC50 [3]: > 10 µM
- Activity (L02): Non-Toxic

SMILES: COc1cc2ncnc(Nc3ccc(F)c(Cl)c3)c2cc1OCCCN1CCOCC1
- Activity (PC-9 [6]): inactive

SMILES: COc1cc2ncnc(Nc3ccc(F)c(Cl)c3)c2cc1OCCOCCNC(=O)COc1c(Br)cc(/C=C2\C(=O)Nc3ccc(I)cc32)cc1Br
- IC50 (NCI-H1975): > 10 µM
- IC50 (NCI-H3255): 3.1 µM
- IC50 (PC-9 [1]): 7.96 µM
- IC50 (HCC827): 1.28 µM
- Emax [7]: 20.2%
- IC50 (A549): > 10 µM
- DC50 [3]: > 10 µM
- Activity (L02): Non-Toxic

SMILES: COc1cc2ncnc(Nc3ccc(F)c(Cl)c3)c2cc1OCCOCCOCCOCCNC(=O)COc1c(Br)cc(/C=C2\C(=O)Nc3ccc(Cl)cc32)cc1Br
- IC50 (NCI-H1975): > 10 µM
- IC50 (NCI-H3255): 4.85 µM
- IC50 (PC-9 [1]): 7.72 µM
- IC50 (HCC827): > 10 µM
- Emax [7]: 9.1%
- IC50 (A549): > 10 µM
- DC50 [3]: > 10 µM
- Activity (L02): Non-Toxic

SMILES: COc1cc2ncnc(Nc3ccc(F)c(Cl)c3)c2cc1OCCCCCCNC(=O)COc1c(Br)cc(/C=C2\C(=O)Nc3ccc(I)cc32)cc1Br
- IC50 (NCI-H1975): > 10 µM
- IC50 (NCI-H3255): > 10 µM
- IC50 (PC-9 [1]): > 10 µM
- IC50 (HCC827): > 10 µM
- IC50 (A549): > 10 µM
- DC50 [3]: > 10 µM
- Activity (L02): Non-Toxic

SMILES: COc1cc2ncnc(Nc3ccc(F)c(Cl)c3)c2cc1OCCOCCOCCOCCOCCNC(=O)COc1c(Br)cc(/C=C2\C(=O)Nc3ccc(I)cc32)cc1Br
- IC50 (NCI-H1975): > 10 µM
- IC50 (NCI-H3255): 4.14 µM
- IC50 (PC-9 [1]): 6.76 µM
- IC50 (HCC827): 1.15 µM
- IC50 (A549): > 10 µM
- DC50 [3]: 5.81 µM
- Activity (L02): Non-Toxic

SMILES: COc1cc2ncnc(Nc3ccc(F)c(Cl)c3)c2cc1OCCOCCNC(=O)COc1c(Br)cc(/C=C2\C(=O)Nc3ccc(Cl)cc32)cc1Br
- IC50 (NCI-H1975): > 10 µM
- IC50 (NCI-H3255): 4.58 µM
- IC50 (PC-9 [1]): > 10 µM
- IC50 (HCC827): 5.87 µM
- IC50 (A549): > 10 µM
- Activity (PC-9 [2]): Active
- DC50 [3]: 0.94 µM
- Activity (L02): Non-Toxic

SMILES: COc1cc2ncnc(Nc3ccc(F)c(Cl)c3)c2cc1OCCOCCNC(=O)COc1c(Br)cc(/C=C2\C(=O)Nc3ccccc32)cc1Br
- IC50 (NCI-H1975): > 10 µM
- Activity [8]: Active
- Activity [9]: Active
- IC50 (NCI-H3255): 0.904 µM
- Kd [10]: 2.2 µM
- IC50 (PC-9 [1]): 3.63 µM
- IC50 (HCC827): 1.16 µM
- IC50 (A549): > 10 µM
- DC50 [3]: 4.38 µM
- Activity (L02): Non-Toxic

From ChEMBL document CHEMBL5500346, “Targeting EGFR degradation by autophagosome degraders” (Eur J Med Chem, 2024)
